{"source": "patent US20230095695A1", "about": "“RNAS FOR COMPLEMENT INHIBITION” (Apellis Pharmaceuticals, Inc., priority 2020, published 2023)", "assay_type_in_all_cases": "in vivo, Sprague-Dawley rats", "key": {"C3 protein": {"test_system": "C3 protein", "assay": "Plasma C3 protein (ELISA) in rats after SC administration", "method": "(§1) Dosing: Animals from groups 1-3 and 8 were dosed with a single subcutaneous injection of PBS vehicle or 3, 10 or 30 mg/kg siRNA 59, formulated at a concentration of 0.6, 2 and 6 mg/ml in PBS, respectively, in a dosing volume of 5 ml. Animals from groups 4-7 were dosed with 3× daily subcutaneous injection of […] siRNA 59, formulated at a concentration of 0.2, 0.6 and 2 mg/ml in PBS, respectively, in a dosing volume of 5 ml.\n(§2) Sampling: For PD analyses, plasma and serum samples were collected at baseline and days 3, 8, 15, 22 and 29 post-dose. Plasma samples were collected at 15 minutes and 1, 4, 8, 24, 48 and 72 hours post-dose. Liver samples were collected at necropsy on days 3 and 30 post-dose.\nBioanalytical Methods: Plasma PD samples were analyzed for concentrations of C3 protein at Confluence Discovery Technologies (MO, USA) using a double antibody sandwich ELISA kit according to the manufacturer's instructions (Eagle Biosciences; plasma dilution of 1:10,000)."}, "alternative pathway": {"test_system": "alternative pathway", "assay": "Serum alternative pathway complement activation (AP Wieslab assay, C5b-9) in rats", "method": "as §1, §2\nSerum PD samples were analyzed for alternative pathway (AP) complement activation at Confluence Discovery Technologies (MO, USA) using the AP Wieslab assay (Eagle Biosciences, Cat #COMPL AP330).\nAlternative pathway complement activity: Sera from each animal treated with single dose siRNA 59 and vehicle, as well as the multi-dose siRNA (−) control-treated animals, were used in the AP Wieslab assay, an ELISA-based assay that measures formation of C5b-9 following alternative pathway activation, to assess complement activation (FIG. 8). […] Data represents mean±SEM (n=3). Serum AP complement activity was highly variable across the control groups."}, "C3 mRNA": {"test_system": "C3 mRNA", "assay": "Liver C3 mRNA (RT-qPCR) in rats", "conditions": "for mean C3 expression in liver, % of gene expression in the vehicle treated arm: 30 mg/kg", "method": "as §1, §2\nPD tissue samples were analyzed for C3 mRNA levels using a semi-validated RT-qPCR method at EpigenDx (MA, USA)."}, "[1]": {"assay": "Tolerability observations in rats", "method": "as §1"}, "[2]": {"conditions": "SC 3, 10, 30 mg/kg, single or 3x daily"}}, "note": "Oligonucleotides are written 5' to 3', each unit as a sugar letter and its base; * is a phosphorothioate linkage, no mark a phosphodiester; rarer units and linkages stand in square brackets, end groups in braces. Plain capitals give the bases only. {GalNAc-NHC6} = GalNAc ligand attached through an NHC6 linker; m = 2'-O-methyl; f = 2'-fluoro", "data": [{"substance": "siRNA 59: siRNA 33 further modified; sense SEQ ID NO: 326 / antisense SEQ ID NO: 260; GalNAc conjugated via NHC6 linker at 5′ end of sense strand (sense {GalNAc-NHC6}-mU*mC*fCmAmAmGfCfCfUmUmGfGmCmUmCmAfA*mU*mA; antisense mU*fA*mUmUmGmAmGmCmCmAmAmGmGfCmUmUmGmGmA*mA*mC) [siRNA 33 further modified; GalNAc conjugated via NHC6 linker at 5′ end of sense strand]", "values": [{"measurement": "recovery of plasma C3 protein to baseline levels", "setting": "C3 protein; 3 mg/kg dose group, day 29", "value": "Full recovery"}, {"measurement": "reduction in C3 plasma protein concentration", "setting": "C3 protein; 10 mg/kg dose", "value": "~90", "unit": "%"}, {"measurement": "plasma C3 concentration, single dose treatment vs QDx3 equivalent dose groups", "setting": "C3 protein; 3, 10, 30 mg/kg total dose", "value": "comparable"}, {"measurement": "recovery of plasma C3 protein to baseline levels", "setting": "C3 protein; 10 and 30 mg/kg dose groups, final blood collection on day 29", "value": "did not appear to have fully recovered"}, {"measurement": "change in plasma C3 concentration across the dose groups", "setting": "C3 protein; [2]", "value": "clear dose-dependent response"}, {"measurement": "time at which maximal C3 protein reduction in plasma was achieved", "setting": "C3 protein; all dose groups", "value": "≤ 8", "unit": "study day"}, {"measurement": "change in AP Wieslab activity", "setting": "alternative pathway; dose groups other than high-dose (3 and 10 mg/kg)", "value": "No change"}, {"measurement": "mean reduction in alternative pathway activity", "setting": "alternative pathway; high dose group (30 mg/kg single SC), day 8 to day 15 post-dose", "value": "approximately 90%"}, {"measurement": "mean C3 expression in liver, % of gene expression in the vehicle treated arm", "setting": "C3 mRNA; day 3", "value": 3, "unit": "%"}, {"measurement": "mean C3 expression in liver, % of gene expression in the vehicle treated arm", "setting": "C3 mRNA; day 30", "value": 25, "unit": "%"}, {"measurement": "recovery of liver C3 expression", "setting": "C3 mRNA; all treatment animals, study termination at day 30", "value": "None of the treatment animals had fully recovered"}, {"measurement": "reduction in C3 mRNA in liver across doses", "setting": "C3 mRNA; both terminal timepoints (day 3 and day 30)", "value": "dose-dependent manner"}, {"measurement": "level of liver C3 mRNA vs vehicle control", "setting": "C3 mRNA; single dose PK animal groups, 3 days following treatment", "value": "significantly reduced"}, {"measurement": "tolerability of the doses used", "setting": "[1]; [2]", "value": "well-tolerated"}, {"measurement": "body weight following TA administration", "setting": "[1]; all treatment groups", "value": "no loss in body weight"}, {"measurement": "signs of distress or behavioral changes", "setting": "[1]; all treatment groups", "value": "No signs of distress or behavioral changes"}]}]}
